What was measured:
tubulin = molecular target: T1, tubulin (Sus scrofa, UniProt P02550+P02554); test: Tubulin polymerization inhibitory assay; type: biochemical
T1 construct: purchased Cytoskeleton Inc., Denver, CO, USA
Description: The substances’ effects on tubulin polymerization were examined using the Tubulin Polymerization Assay Kit (Cytoskeleton Inc., Denver, CO, USA) according to the supplier’s instructions, with details described in Appendix A..
The activity of compounds on tubulin polymerization was investigated using the Tubulin Polymerization Assay Kit (Cytoskeleton Inc., Denver, CO, USA), which works via fluorescent reporter enhancement. […] Docetaxel and vincristine (Apoteket AB, Stockholm, Sweden) served as positive stabilizing and destabilizing controls. Both were used at a 3 µM concentration in PBS.

[1] = tested on: multi-drug resistant K562R cell line; parameters: method as in PMID 33038796; settings: cited from earlier work
[2] = tested on: SGC-7901 cancer cell line; parameters: method as in PMID 37182330; settings: cited from earlier work

T1 sequence (P02554 whole entry): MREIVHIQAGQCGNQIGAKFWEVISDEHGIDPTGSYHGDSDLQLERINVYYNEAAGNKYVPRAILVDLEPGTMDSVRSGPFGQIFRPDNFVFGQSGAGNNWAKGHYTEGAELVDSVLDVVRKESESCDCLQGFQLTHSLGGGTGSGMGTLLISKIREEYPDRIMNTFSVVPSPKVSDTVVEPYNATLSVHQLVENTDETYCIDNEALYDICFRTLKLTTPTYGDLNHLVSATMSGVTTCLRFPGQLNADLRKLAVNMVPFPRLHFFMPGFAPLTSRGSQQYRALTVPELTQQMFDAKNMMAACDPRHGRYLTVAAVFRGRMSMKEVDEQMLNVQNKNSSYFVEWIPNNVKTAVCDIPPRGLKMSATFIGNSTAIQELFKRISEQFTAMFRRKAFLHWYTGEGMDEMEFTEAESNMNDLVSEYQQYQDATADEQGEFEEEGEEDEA
T1 sequence (P02550 whole entry): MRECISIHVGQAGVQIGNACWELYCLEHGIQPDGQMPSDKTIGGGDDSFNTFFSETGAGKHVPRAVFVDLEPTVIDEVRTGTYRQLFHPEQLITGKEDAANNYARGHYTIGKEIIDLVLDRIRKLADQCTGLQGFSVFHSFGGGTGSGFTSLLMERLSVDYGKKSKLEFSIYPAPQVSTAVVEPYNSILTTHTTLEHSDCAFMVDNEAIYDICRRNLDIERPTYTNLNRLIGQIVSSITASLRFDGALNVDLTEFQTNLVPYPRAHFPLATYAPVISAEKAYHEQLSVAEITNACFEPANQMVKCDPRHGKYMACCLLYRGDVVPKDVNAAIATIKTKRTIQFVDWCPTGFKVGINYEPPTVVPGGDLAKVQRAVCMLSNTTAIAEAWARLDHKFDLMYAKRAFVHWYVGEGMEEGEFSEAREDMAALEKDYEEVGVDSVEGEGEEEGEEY

COc1ccc(/C=C\c2cc(OC)c(OC)c(OC)c2)cc1O [CA-4, combretastatin A-4, reference compound]
%inhibition (tubulin; conc 0.01 (unit not given; IC50 from this curve in µg/ml)): 8.7%
%inhibition (tubulin; conc 0.1 (unit not given; IC50 from this curve in µg/ml)): 21.2%
%inhibition (tubulin; conc 1 (unit not given; IC50 from this curve in µg/ml)): 34.9%
%inhibition (tubulin; conc 10 (unit not given; IC50 from this curve in µg/ml)): 59%
%inhibition (tubulin; conc 100 (unit not given; IC50 from this curve in µg/ml)): 84.2%

Cc1cc(-c2cccc(-c3c[nH]c4ccccc34)n2)c2ccccc2n1 [Compound III]
antiproliferative potency, times more effective than CA-4 [1]: 12 times
antiproliferative potency, times more effective than isoCA-4 [1]: 1.5 times

COc1cc(-c2nc3scc(-c4cc(Cl)cc(Cl)c4)n3n2)cc(OC)c1OC [IV]
IC50 [2]: 210 nM

From paper PMC11859928, “Design, Synthesis, and Antiproliferative Activity of Novel Indole/1,2,4-Triazole Hybrids as Tubulin Polymerization Inhibitors” (Pharmaceuticals, 2025)
